# Legend:
# [1] = system: Daphnia magna; settings: chronic/long-term; duration: 21 days; reproduction
# [2] = system: Apis mellifera; settings: acute, duration: 48 hours, mortality
# [3] = system: Colinus virginianus; settings: for LD50: acute, oral, mortality
# [4] = system: Landoltia sp.; settings: acute; duration: 7 days; growth
# [5] = system: Tagia sp.; settings: acute; duration: 14 days; mortality
# [6] = system: Oncorhynchus mykiss; settings: chronic/long-term; duration: 96 days; mortality
# [7] = system: Rattus norvegicus; settings: for NOAEL: chronic
# [8] = system: Oryctolagus sp.; settings: developmental; development
smiles,measurement,setting,value
Cc1c(C(=O)c2c[nH]n(C)c2=O)ccc(S(C)(=O)=O)c1C1=NOCC1 [Topramezone],NOEC,[1],50 mg/L
same,LD50,[2]; dermal,> 100 µg/piece
same,LD50,"[2]; oral, unspecified",> 72 µg/piece
same,LD50,[3]; diet,> 1080 mg/kg-day
same,LD50,[3],> 2000 mg/kg-day
same,NOEL,"[3]; reproduction developmental, reproduction",19.4 mg/kg-day
same,NOEC,[4],0.001 mg/L
same,LC50,[5],> 1000 mg/kg
same,NOAEC,[6],3.2 mg/L
same,LD50,"[7]; acute, oral, mortality",> 2000 mg/kg-day
same,NOAEL,[7]; F,0.4 mg/kg-day
same,NOAEL,[7]; M,0.3 mg/kg-day
same,NOAEL,"[7]; duration: 2 years, F, histopathology: neoplastic",0.4 mg/kg-day
same,NOAEL,[8],0.5 mg/kg-day
